From patent publication US11047848B2, “Cellular discovery platform for neurodegenerative diseases” (Whitehead Institute for Biomedical Research, priority 2013, dated 2021) come the findings set out here.

The test system of the assay is primary cortical cultures. The experiment in a line: Optimization of the NO sensor FL2 in rat primary cortical cultures. It is filed as cell-based. The settings on record: 500 μM DETA-NONOate for 30 min, DIV 14-21; FIG. 20. The method, then:
FIG. 20. Optimization of the NO sensor, FL2, using an NO donor, DETA-NONOate. FL2 dye was loaded after exposing primary cortical cultures (DIV 14-21) to 500 μM DETA-NONOate for 30 min. […] Control cultures exposed to dye without an NO donor are shown in the upper panel. A single representative experiment is shown.
Embryos were harvested by cesarean section from anesthetized pregnant Sprague-Dawley rats at embryonic day 18. Cerebral cortices were isolated and dissociated with Accumax (Innovative Cell Technologies, Inc) digestion for 20 min at 37° C. and triutration with Pasteur pipette. Poly-ornithine and lamine-coated 96 well plates or 8 well-chambered coverglass (Lab-Tek; 70378-81) were seeded with 4×10^4 or 8×10^4 cells respectively in neurobasal medium (Life Technologies) supplemented with B27 (Life Technologies), 0.5 mM glutamine, 25 μM β-mercaptoethanol, penicillin (100 IU/ml) and streptomycin (100 μg/ml). One third of the medium was changed every 3 to 4 days. As a surrogate marker of cell viability, cellular ATP content was measured using the ViaLight Plus kit (Lonza).
The FL2 sensor used in this study was a non-acidified and non-esterified version of the FL2-related sensors that have been previously published^23,24,53,55. A working 1 mM solution of FL2 (batch SJL #1768) in DMSO (Sigma 276855) was stable for at least 3 months at −20° C. […]

`NCCN(CCN)/[N+]([O-])=N/O` [DETA-NONOate]: the “FL2 response (NO signal)” value is recorded as “robust FL2 response”.
